This is an account of results in patent US9988371B2, “Benzimidazole analogues and related methods” (The Arizona Board of Regents, on Behalf of the University …, priority 2014, dated 2018).

For one test, the system named is pMAPK. As to the kind of experiment: pMAPK immunoblot in Nthy-ori-3-1 cells. It is filed as cell-based, human. The following applies: Nthy-ory-3-1, non-transformed with oncogenic RET. The protocol:
FIG. 3: Photographs of blots showing inhibition of RET protein endogenously expressed in TT cells (human MTC cell line expressing RET/C634W) by indicated concentrations of Pz-1 or vehicle (NT: not treated) and reduced effects in thyroid non-transformed Nthy-ori-3-1 cells. Serum-starved human TT and thyroid non-transformed Nthy-ori-3-1 cell lines were treated for 2 hr with indicated concentrations of Pz-1. 50 μg of total cell lysates were subjected to immunoblotting with anti-phospho-Y1062 (αp1062) and anti-phospho-905 (αpY905) RET antibodies, anti-phospho-MAPK (αpMAPK, T302/Y304), and anti-phospho-SHC (αpSHC, Y317) antibodies. The blots were normalized using anti-RET (αRET) and anti-SHC (αSHC).
(§1) The inhibition of RET auto-phosphorylation by Pz-1 was measured in several different cell lines including NIH3T3 fibroblasts expressing RET/C634Y or RET/M918T, TT expressing RET/C634W (MTC), Nthy-ory-3-1 (thyroid, non-transformed with RET; negative control), HEK293/RET/PTC1 (CCDC6-RET that can be found in PTC & lung cancer), HEK293/RET-KIF5B (that can be found in lung cancer), HEK293/RET/PTC3 (NCOA4-RET, that can be found in PTC & lung cancer), and HEK293 transfected with RET/C634R-V804M (FIGS. 1-3). […]
Protein lysates were prepared according to standard procedures. […] Immune complexes were detected with the enhanced chemiluminescence kit (Amersham Pharmacia Biotech, Little Chalfort, UK). […]
For orientation: Immunoblotting shows a protein as a band on a membrane.

A further test addresses T1, RET/C634R-V804M (Homo sapiens, UniProt P07949, C634R/V804M).
T1 construct: expressed in transfected cells; host or cells: HEK293
The test can be described thus: RET auto-phosphorylation immunoblot in transfected HEK293 cells. It is filed as cell-based. The note with it: 1 nM, 2 hrs, cells expressing RET/C634R-V804M.
From the text: FIG. 2: Photographs of blots showing inhibition of phosphorylation of gate-keeper RET point mutant and rearranged RET oncoproteins by Pz-1 or vehicle (NT: not treated). HEK293 cells were transiently transfected with vectors expressing RET/C634R-V804M mutant (V804 is the gate-keeper RET residue), or RET/PTC1 (CCDC6-RET, found in papillary thyroid carcinoma and lung adenocarcinoma), RET/PTC3 (NCOA4-RET, found in papillary thyroid carcinoma and lung adenocarcinoma), or KIF5B-RET (found in lung adenocarcinoma). After 36 hr from transfection, cells were serum-starved for 12 hr and then treated for 2 hr with indicated concentrations of Pz-1. 50 μg of total cell lysates were subjected to immunoblotting with anti-phospho-Y1062 (αp1062) and anti-phospho-Y905 (αp905) RET antibodies. The blots were normalized using anti-RET (αRET) antibody.
as §1

T1 sequence (P07949 29-1072 isoform P07949-2 C634R/V804M limits assumed): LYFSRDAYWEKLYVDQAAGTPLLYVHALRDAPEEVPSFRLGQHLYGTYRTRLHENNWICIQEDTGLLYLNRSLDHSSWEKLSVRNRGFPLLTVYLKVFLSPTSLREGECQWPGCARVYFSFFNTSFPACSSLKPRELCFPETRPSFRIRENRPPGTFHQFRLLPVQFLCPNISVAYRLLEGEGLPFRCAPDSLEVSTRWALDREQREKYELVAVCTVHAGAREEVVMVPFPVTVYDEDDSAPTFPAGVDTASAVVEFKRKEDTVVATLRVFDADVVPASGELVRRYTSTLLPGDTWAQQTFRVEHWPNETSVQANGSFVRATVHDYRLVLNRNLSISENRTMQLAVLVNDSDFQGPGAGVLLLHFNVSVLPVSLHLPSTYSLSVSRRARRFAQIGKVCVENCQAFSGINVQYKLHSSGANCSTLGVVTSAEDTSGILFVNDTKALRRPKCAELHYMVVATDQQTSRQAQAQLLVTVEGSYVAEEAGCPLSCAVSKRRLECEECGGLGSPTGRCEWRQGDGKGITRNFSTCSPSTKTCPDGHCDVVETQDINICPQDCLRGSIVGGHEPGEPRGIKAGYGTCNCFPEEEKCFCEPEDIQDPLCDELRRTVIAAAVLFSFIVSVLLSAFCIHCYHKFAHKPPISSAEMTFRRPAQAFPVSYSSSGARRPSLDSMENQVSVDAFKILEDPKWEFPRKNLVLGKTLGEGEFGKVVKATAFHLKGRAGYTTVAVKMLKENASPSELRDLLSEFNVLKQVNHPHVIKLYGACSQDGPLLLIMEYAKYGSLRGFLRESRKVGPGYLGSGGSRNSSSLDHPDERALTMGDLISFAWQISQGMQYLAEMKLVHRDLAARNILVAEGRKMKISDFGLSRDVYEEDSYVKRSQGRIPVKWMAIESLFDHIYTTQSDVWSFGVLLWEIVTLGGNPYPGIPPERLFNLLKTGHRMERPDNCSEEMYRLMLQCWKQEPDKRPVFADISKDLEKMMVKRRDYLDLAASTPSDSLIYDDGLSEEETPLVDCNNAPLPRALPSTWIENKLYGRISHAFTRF

Regarding `Cn1cc(-c2ccc3c(c2)ncn3-c2ccc(CC(=O)Nc3cc(C(C)(C)C)on3)cc2)cn1` [Pz-1, N-(5-(tert-butyl)isoxazol-3-yl)-2-(4-(5-(1-methyl-1H-pyrazol-4-yl)-1H-benzo[d]imidazol-1-yl)phenyl)acetamide], the “concentration at which pMAPK was inhibited” value in the test with pMAPK was 100 nM. In addition, the “inhibition of pRET” value at RET/C634R-V804M was “strongly inhibited”.
